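Exposure lasted 48 hours, with cells grown in 96-well plates and compounds tested at five concentrations. At the GI50, growth is halved.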 Activity calls are given as the source filed them. No stated cut-off is given here; in the data, active = GI50 up to about 1.1 µM and inactive = higher.
What was measured:
Assay in all cases: inhibition of tumour cell growth, NCI panel, 48 h
786-0 = tested on: 786-0
A498 = tested on: A498
A549 = tested on: A549
ACHN = tested on: ACHN
BT-549 = tested on: BT-549
CAKI-1 = tested on: CAKI-1
CCRF-CEM = tested on: CCRF-CEM
COLO 205 = tested on: COLO 205
DU-145 = tested on: DU-145
EKVX = tested on: EKVX
HCC 2998 = tested on: HCC 2998
HCT-116 = tested on: HCT-116
HCT-15 = tested on: HCT-15
HL-60 = tested on: HL-60
HOP-62 = tested on: HOP-62
HOP-92 = tested on: HOP-92
HT-29 = tested on: HT-29
Hs-578T = tested on: Hs-578T
IGROV-1 = tested on: IGROV-1
K562 = tested on: K562
KM12 = tested on: KM12
LOX IMVI = tested on: LOX IMVI
M14 = tested on: M14
MCF7 = tested on: MCF7
MDA-MB-231 = tested on: MDA-MB-231
MDA-MB-435 = tested on: MDA-MB-435
MDA-N = tested on: MDA-N
MOLT-4 = tested on: MOLT-4
Malme-3M = tested on: Malme-3M
NCI-H226 = tested on: NCI-H226
NCI-H23 = tested on: NCI-H23
NCI-H460 = tested on: NCI-H460
NCI-H522 = tested on: NCI-H522
NCI/ADR-RES = tested on: NCI/ADR-RES
OVCAR-3 = tested on: OVCAR-3
OVCAR-4 = tested on: OVCAR-4
OVCAR-5 = tested on: OVCAR-5
OVCAR-8 = tested on: OVCAR-8
PC-3 = tested on: PC-3
RPMI-8226 = tested on: RPMI-8226
RXF 393 = tested on: RXF 393
SF-268 = tested on: SF-268
SF-295 = tested on: SF-295
SF-539 = tested on: SF-539
SK-MEL-28 = tested on: SK-MEL-28
SK-MEL-2 = tested on: SK-MEL-2
SK-MEL-5 = tested on: SK-MEL-5
SK-OV-3 = tested on: SK-OV-3
SN12C = tested on: SN12C
SNB-19 = tested on: SNB-19
SNB-75 = tested on: SNB-75
SR = tested on: SR
SW-620 = tested on: SW-620
T47D = tested on: T47D
TK-10 = tested on: TK-10
U-251 = tested on: U-251
UACC-257 = tested on: UACC-257
UACC-62 = tested on: UACC-62
UO-31 = tested on: UO-31
DLD-1 = tested on: DLD-1
HOP-18 = tested on: HOP-18
LXFL 529 = tested on: LXFL 529
M19-MEL = tested on: M19-MEL
SNB-78 = tested on: SNB-78

CC(C)NC(=O)OCc1c(COC(=O)NC(C)C)c(-c2ccc[n+](COC(=O)C(C)C)c2)n2c1CCC2
GI50 (786-0): 34.6 µM (inactive)
GI50 (A498): 23.1 µM (inactive)
GI50 (A549): > 91.4 µM (inactive)
GI50 (ACHN): 29.1 µM (inactive)
GI50 (BT-549): 81.1 µM (inactive)
GI50 (CAKI-1): 17.3 µM (inactive)
GI50 (CCRF-CEM): 17.2 µM (inactive)
GI50 (COLO 205): > 72.3 µM (inactive)
GI50 (DU-145): 65.8 µM (inactive)
GI50 (EKVX): > 100 µM (inactive)
GI50 (HCC 2998): > 100 µM (inactive)
GI50 (HCT-116): 54.7 µM (inactive)
GI50 (HCT-15): > 71.9 µM
GI50 (HL-60): 16 µM (inactive)
GI50 (HOP-62): > 63.5 µM (inactive)
GI50 (HOP-92): 44.1 µM (inactive)
GI50 (HT-29): 73.8 µM (inactive)
GI50 (Hs-578T): > 100 µM (inactive)
GI50 (IGROV-1): > 67.6 µM (inactive)
GI50 (K562): 56.6 µM (inactive)
GI50 (KM12): > 100 µM (inactive)
GI50 (LOX IMVI): 37.7 µM (inactive)
GI50 (M14): 61.5 µM (inactive)
GI50 (MCF7): 55.6 µM (inactive)
GI50 (MDA-MB-231): > 100 µM (inactive)
GI50 (MDA-MB-435): > 100 µM (inactive)
GI50 (MDA-N): > 100 µM (inactive)
GI50 (MOLT-4): 13.6 µM (inactive)
GI50 (Malme-3M): > 63.5 µM (inactive)
GI50 (NCI-H226): > 100 µM (inactive)
GI50 (NCI-H23): 33.5 µM (inactive)
GI50 (NCI-H460): 21.6 µM (inactive)
GI50 (NCI-H522): 34.5 µM (inactive)
GI50 (NCI/ADR-RES): 63.7 µM (inactive)
GI50 (OVCAR-3): > 67.8 µM (inactive)
GI50 (OVCAR-4): > 87.3 µM (inactive)
GI50 (OVCAR-5): > 100 µM (inactive)
GI50 (OVCAR-8): > 72.8 µM (inactive)
GI50 (PC-3): 59.3 µM (inactive)
GI50 (RPMI-8226): 55.2 µM (inactive)
GI50 (RXF 393): 42.4 µM (inactive)
GI50 (SF-268): 52.4 µM (inactive)
GI50 (SF-295): 68.9 µM (inactive)
GI50 (SF-539): 31.8 µM (inactive)
GI50 (SK-MEL-28): > 100 µM (inactive)
GI50 (SK-MEL-2): > 83.4 µM (inactive)
GI50 (SK-MEL-5): > 94.4 µM (inactive)
GI50 (SK-OV-3): > 100 µM (inactive)
GI50 (SN12C): 37.5 µM (inactive)
GI50 (SNB-19): > 100 µM (inactive)
GI50 (SNB-75): 52.1 µM (inactive)
GI50 (SR): 8.53 µM (inactive)
GI50 (SW-620): 55.3 µM (inactive)
GI50 (T47D): > 81.3 µM (inactive)
GI50 (TK-10): > 91.4 µM (inactive)
GI50 (U-251): > 75.5 µM (inactive)
GI50 (UACC-257): > 100 µM (inactive)
GI50 (UACC-62): 26.9 µM (inactive)
GI50 (UO-31): 52.4 µM (inactive)

Clc1cccc(C2SCc3nc4ccccc4n32)c1 (stereo not given)
GI50 (786-0): > 10 µM (inactive)
GI50 (A549): 42.9 µM (inactive)
GI50 (ACHN): 18.4 µM (inactive)
GI50 (CAKI-1): 27 µM (inactive)
GI50 (CCRF-CEM): 27.4 µM (inactive)
GI50 (COLO 205): 4.79 µM (inactive)
GI50 (DLD-1): 15.8 µM (inactive)
GI50 (EKVX): 17.5 µM (inactive)
GI50 (HCT-15): 16.8 µM
GI50 (HL-60): 7.57 µM (inactive)
GI50 (HOP-18): 18.5 µM (inactive)
GI50 (HOP-62): 20 µM (inactive)
GI50 (HOP-92): 11.5 µM (inactive)
GI50 (HT-29): 23.7 µM (inactive)
GI50 (IGROV-1): 22.3 µM (inactive)
GI50 (K562): 14.9 µM (inactive)
GI50 (KM12): 18.8 µM (inactive)
GI50 (LOX IMVI): 15.2 µM (inactive)
GI50 (LXFL 529): 19.9 µM (inactive)
GI50 (M14): 19.7 µM (inactive)
GI50 (M19-MEL): 19.4 µM (inactive)
GI50 (MOLT-4): 23.1 µM (inactive)
GI50 (Malme-3M): 22 µM (inactive)
GI50 (NCI-H226): 12.8 µM (inactive)
GI50 (NCI-H23): 18.3 µM (inactive)
GI50 (NCI-H460): 27.8 µM (inactive)
GI50 (NCI-H522): 10.4 µM (inactive)
GI50 (OVCAR-3): 14.4 µM (inactive)
GI50 (OVCAR-4): 27 µM (inactive)
GI50 (OVCAR-5): 15 µM (inactive)
GI50 (OVCAR-8): 24.8 µM (inactive)
GI50 (RPMI-8226): 14.2 µM (inactive)
GI50 (RXF 393): 15 µM (inactive)
GI50 (SF-268): 28.8 µM (inactive)
GI50 (SF-295): 30.3 µM (inactive)
GI50 (SF-539): 21.1 µM (inactive)
GI50 (SK-MEL-28): 19.1 µM (inactive)
GI50 (SK-OV-3): 21.6 µM (inactive)
GI50 (SN12C): 13.8 µM (inactive)
GI50 (SNB-75): 3.52 µM (inactive)
GI50 (SNB-78): 22.1 µM (inactive)
GI50 (SR): 16.3 µM (inactive)
GI50 (SW-620): 32.9 µM (inactive)
GI50 (TK-10): 25.6 µM (inactive)
GI50 (U-251): 16 µM (inactive)
GI50 (UACC-62): 13.8 µM (inactive)
